Patent US6673793B2, “Oxazinoquinolones useful for the treatment of viral infections” (Pharmacia & Upjohn Co., priority 2000, dated 2004)
“And” between values parts separate entries of the source, which are not always exact repeats. Equal entries are not always repeated. Structures can show the parent of a compound that is named as a salt.

target: T1, CMV polymerase (Human cytomegalovirus, UniProt P08546); assay: HCMV polymerase assay, scintillation proximity assay (SPA), modified version; format: biochemical; settings: CMV polymerase IC50 (μM), modified HCMV polymerase SPA assay: compounds diluted in 100% DMSO, 4.5 mM DTT in polymerase buffer, different lot of CMV polymerase
T1 construct: made in house; host or cells: recombinant baculovirus-infected SF-9 cells
Description: The HCMV polymerase assay is performed using a scintillation proximity assay (SPA) as described in several references, such as N. D. Cook, et al., Pharmaceutical Manufacturing International, pages 49-53 (1992); K. Takeuchi, Laboratory Practice, September issue (1992); U.S. Pat. No. 4,568,649 (1986); which are incorporated by reference herein. Reactions are performed in 96-well plates. The assay is conducted in 100 μl volume with 5.4 mM HEPES (pH 7.5), 11.7 mM KCl, 4.5 mM MgCl2, 0.36 mg/ml BSA, and 90 nM ^3H-dTTP. Assays are run with and without CHAPS, (3-[(3-Cholamidopropyl)-dimethylammonio]-1-propane-sulfonate) at a final concentration of 2 mM. HCMV polymerase is diluted in enzyme dilution buffer containing 50% glycerol, 250 mM NaCl, 10 mM HEPES (pH 7.5), 100 μg/ml BSA, and 0.01% sodium azide. The HCMV polymerase, which is expressed in recombinant baculovirus-infected SF-9 cells and purified according to literature procedures, is added at 10% (or 10 μl) of the final reaction volume, i.e., 100 μl. Compounds are diluted in 50% DMSO and 10 μl are added to each well. Control wells contain an equivalent concentration of DMSO. Unless noted otherwise, reactions are initiated via the addition of 6 nM biotinylated poly(dA)-oligo(dT) template/primer to reaction mixtures containing the enzyme, substrate, and compounds of interest. Plates are incubated in a 25 C. or 37 C. H2O bath and terminated via the addition of 40 μl/reaction of 0.5 M EDTA (pH 8) per well. Reactions are terminated within the time-frame during which substrate incorporation is linear and varied depending upon the enzyme and conditions used, i.e., 30 min. for HCMV polymerase. Ten μl of streptavidin-SPA beads (20 mg/ml in PBS/10% glycerol) are added following termination of the reaction. Plates are incubated 10 min. at 37 C., then equilibrated to room temperature, and counted on a Packard Topcount. Linear regressions are performed and IC50's are calculated using computer software.
A modified version of the above HCMV polymerase assay is performed as described above, but with the following changes: Compounds are diluted in 100% DMSO until final dilution into assay buffer. In the previous assay, compounds are diluted in 50% DMSO. 4.5 mM dithiotherotol (DTT) is added to the polymerase buffer.

T1 sequence (P08546 whole entry): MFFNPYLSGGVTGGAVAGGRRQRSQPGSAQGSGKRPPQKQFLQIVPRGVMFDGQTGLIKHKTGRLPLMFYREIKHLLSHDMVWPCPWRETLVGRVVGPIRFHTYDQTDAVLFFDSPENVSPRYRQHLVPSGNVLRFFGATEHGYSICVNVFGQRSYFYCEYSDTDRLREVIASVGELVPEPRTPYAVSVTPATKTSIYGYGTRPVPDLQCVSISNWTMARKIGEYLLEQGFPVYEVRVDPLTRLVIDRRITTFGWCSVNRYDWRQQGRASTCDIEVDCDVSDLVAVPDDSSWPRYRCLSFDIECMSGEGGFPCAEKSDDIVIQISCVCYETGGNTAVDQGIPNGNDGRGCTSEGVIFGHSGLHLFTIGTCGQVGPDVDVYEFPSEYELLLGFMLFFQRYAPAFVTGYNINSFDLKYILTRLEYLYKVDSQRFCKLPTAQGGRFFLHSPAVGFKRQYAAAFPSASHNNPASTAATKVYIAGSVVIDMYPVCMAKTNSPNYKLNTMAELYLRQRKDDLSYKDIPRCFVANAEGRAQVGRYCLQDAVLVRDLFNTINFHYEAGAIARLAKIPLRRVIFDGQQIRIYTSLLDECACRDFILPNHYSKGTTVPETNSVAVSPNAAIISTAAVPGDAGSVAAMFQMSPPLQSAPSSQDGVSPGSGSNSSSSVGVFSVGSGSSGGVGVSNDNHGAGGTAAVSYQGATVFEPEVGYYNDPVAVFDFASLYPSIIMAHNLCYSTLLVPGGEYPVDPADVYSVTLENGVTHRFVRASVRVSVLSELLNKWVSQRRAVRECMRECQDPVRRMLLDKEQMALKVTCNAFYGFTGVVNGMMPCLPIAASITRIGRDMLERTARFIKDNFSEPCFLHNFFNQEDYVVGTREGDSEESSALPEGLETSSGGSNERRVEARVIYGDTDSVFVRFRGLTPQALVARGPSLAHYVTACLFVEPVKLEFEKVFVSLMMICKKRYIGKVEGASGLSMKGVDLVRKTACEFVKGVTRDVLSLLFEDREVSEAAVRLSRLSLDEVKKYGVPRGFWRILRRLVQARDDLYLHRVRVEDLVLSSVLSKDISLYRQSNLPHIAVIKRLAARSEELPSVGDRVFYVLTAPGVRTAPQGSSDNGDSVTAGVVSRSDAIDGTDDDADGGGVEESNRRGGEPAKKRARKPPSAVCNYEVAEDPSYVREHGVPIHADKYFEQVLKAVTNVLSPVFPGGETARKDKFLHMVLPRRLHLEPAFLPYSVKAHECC

Row | SMILES | IC50 [µM]
1 | COP(=O)(OC)OCC1Cn2cc(C(=O)NCc3ccc(Cl)cc3)c(=O)c3cc(CN4CCOCC4)cc(c32)O1 (centres unmarked) [Example 26, [6-{[(4-Chlorobenzyl)amino]carbonyl}-9-(4-morpholinylmethyl)-7-oxo-2,3-dihydro-7H-[1,4]oxazino[2,3,4-ij]quinolin-2-yl]methyl dimethyl phosphate] | 0.53

same assay, conditions: modified HCMV polymerase SPA assay: compounds diluted in 100% DMSO, 4.5 mM DTT in polymerase buffer, different lot of CMV polymerase; read-out: CMV polymerase IC50

Row | SMILES | IC50
2 | O=C(NCc1ccc(Cl)cc1)c1cn2c3c(cc(CN4CCOCC4)cc3c1=O)OC(CO)C2 (single isomer, unassigned) [Example 20, N-(4-Chlorobenzyl)-2-(R or S)-(hydroxymethyl)-9-(4-morpholinylmethyl)-7-oxo-2,3-dihydro-7H-[1,4]oxazino[2,3,4-ij]quinoline-6-carboxamide] | 0.35 µM
3 | O=C(NCc1ccc(Cl)cc1)c1cn2c3c(cc(CN4CCOCC4)cc3c1=O)OC(CO)C2 (centres unmarked) [Example 1, N-(4-Chlorobenzyl)-2-(hydroxymethyl)-9-(4-morpholinylmethyl)-7-oxo-2,3-dihydro-7H-[1,4]oxazino[2,3,4-ij]quinoline-6-carboxamide] | 0.61 µM
4 | O=C(NCc1ccc(Cl)cc1)c1cn2c3c(cc(CN4CCOCC4)cc3c1=O)OC(CNCC(O)CO)C2 (centres unmarked) [Example 6, N-(4-Chlorobenzyl)-2-{[(2,3-dihydroxypropyl)amino]methyl}-9-(4-morpholinylmethyl)-7-oxo-2,3-dihydro-7H-[1,4]oxazino[2,3,4-ij]quinoline-6-carboxamide] | 0.66 µM
5 | O=C(NCc1ccc(Cl)cc1)c1cn2c3c(cc(CN4CCOCC4)cc3c1=O)OC(CNCCO)C2 (centres unmarked) [Example 7, N-(4-Chlorobenzyl)-2-{[(2-hydroxyethyl)amino]methyl}-9-(4-morpholinylmethyl)-7-oxo-2,3-dihydro-7H-[1,4]oxazino[2,3,4-ij]quinoline-6-carboxamide] | 0.67 µM
6 | O=C(NCc1ccc(Cl)cc1)c1cn2c3c(cc(CN4CCOCC4)cc3c1=O)OC(CN(CCO)CCO)C2 (centres unmarked) [Example 9, 2-{[bis(2-Hydroxyethyl)amino]methyl}-N-(4-chlorobenzyl)-9-(4-morpholinylmethyl)-7-oxo-2,3-dihydro-7H-[1,4]oxazino[2,3,4-ij]quinoline-6-carboxamide] | 0.59 µM
7 | O=C(NCc1ccc(Cl)cc1)c1cn2c3c(cc(CN4CCOCC4)cc3c1=O)OC(CNCc1ccccn1)C2 (centres unmarked) [Example 10, N-(4-Chlorobenzyl)-9-(4-morpholinylmethyl)-7-oxo-2-{[(2-pyridinylmethyl)amino]methyl}-2,3-dihydro-7H-[1,4]oxazino[2,3,4-ij]quinoline-6-carboxamide] | 0.62 µM
8 | O=C(NCc1ccc(Cl)cc1)c1cn2c3c(cc(CN4CCOCC4)cc3c1=O)OC(CNCc1cccnc1)C2 (centres unmarked) [Example 11, N-(4-Chlorobenzyl)-9-(4-morpholinylmethyl)-7-oxo-2-{[(3-pyridinylmethyl)amino]methyl}-2,3-dihydro-7H-[1,4]oxazino[2,3,4-ij]quinoline-6-carboxamide] | 0.54 µM
9 | O=C(NCc1ccc(Cl)cc1)c1cn2c3c(cc(CN4CCOCC4)cc3c1=O)OC(CSCCO)C2 (centres unmarked) [Example 16, N-(4-Chlorobenzyl)-2-{[(2-hydroxyethyl)sulfanyl]methyl}-9-(4-morpholinylmethyl)-7-oxo-2,3-dihydro-7H-[1,4]oxazino[2,3,4-ij]quinoline-6-carboxamide] | 0.42 µM
10 | Cn1ccnc1SCC1Cn2cc(C(=O)NCc3ccc(Cl)cc3)c(=O)c3cc(CN4CCOCC4)cc(c32)O1 (centres unmarked) [Example 17] | 0.27 µM
11 | O=C(NCc1ccc(Cl)cc1)c1cn2c3c(cc(CN4CCOCC4)cc3c1=O)OC(CSCC(O)CO)C2 (centres unmarked) [Example 19, N-(4-Chlorobenzyl)-2-{[(2,3-dihydroxypropyl)sulfanyl]methyl}-9-(4-morpholinylmethyl)-7-oxo-2,3-dihydro-7H-[1,4]oxazino[2,3,4-ij]quinoline-6-carboxamide] | 0.57 µM

Other lines, results leading:

Row | IC50 | SMILES
12 | 0.67 µM | O=C(NCc1ccc(Cl)cc1)c1cn2c3c(cc(CN4CCOCC4)cc3c1=O)OC(CO)C2 (single isomer, unassigned) [Example 21, N-(4-Chlorobenzyl)-2-(R or S)-(hydroxymethyl)-9-(4-morpholinylmethyl)-7-oxo-2,3-dihydro-7H-[1,4]oxazino[2,3,4-ij]quinoline-6-carboxamide]
13 | 0.3 µM | O=C(NCc1ccc(Cl)cc1)c1cn2c3c(cc(CN4CCOCC4)cc3c1=O)OC(CNCc1cccnc1)C2 (single isomer, unassigned) [Example 22, N-(4-chlorobenzyl)-9-(4-morpholinylmethyl)-7-oxo-2-(R or S)-{[(3-pyridinylmethyl)amino]methyl}-2,3-dihydro-7H-[1,4]oxazino[2,3,4-ij]quinoline-6-carboxamide]
14 | 1.1 µM | O=C(NCc1ccc(Cl)cc1)c1cn2c3c(cc(CN4CCOCC4)cc3c1=O)OC(CNCc1cccnc1)C2 (single isomer, unassigned) [Example 23, N-(4-Chlorobenzyl)-9-(4-morpholinylmethyl)-7-oxo-2-(R or S)-{[3-pyridinylmethyl)amino]methyl}-2,3-dihydro-7H-[1,4]oxazino[2,3,4-ij]quinoline-6-carboxamide]
15 | 0.68 µM and 0.32 µM | O=C(NCc1ccc(Cl)cc1)c1cn2c3c(cc(CN4CCOCC4)cc3c1=O)OC(c1ccccn1)C2 (single isomer, unassigned) [Example 57, N-(4-Chlorobenzyl)-9-(morpholin-4-ylmethyl)-7-oxo-2-(R or S)-pyridin-2-yl-2,3-dihydro-7H-[1,4]oxazino[2,3,4-ij]quinoline-6-carboxamide]
16 | 0.57 µM and 0.27 µM | O=C(NCc1ccc(Cl)cc1)c1cn2c3c(cc(CN4CCOCC4)cc3c1=O)OC(c1cccnc1)C2 (single isomer, unassigned) [Example 58, N-(4-Chlorobenzyl)-9-(morpholin-4-ylmethyl)-7-oxo-2-(R or S)-pyridin-3-yl-2,3-dihydro-7H-[1,4]oxazino[2,3,4-ij]quinoline-6-carboxamide]
17 | 1.3 µM | CN(CCS(=O)(=O)O)C(=O)CCCCCCC(=O)OCC1Cn2cc(C(=O)NCc3ccc(Cl)cc3)c(=O)c3cc(CN4CCOCC4)cc(c32)O1 (centres unmarked) [Example 25, 2-[(8-{[6-{[(4-Chlorobenzyl)amino]carbonyl}-9-(4-morpholinylmethyl)-7-oxo-2,3-dihydro-7H-[1,4]oxazino[2,3,4-ij]quinolin-2-yl]methoxy}-8-oxooctanoyl)(methyl)amino]ethanesulfonic acid sodium salt]
18 | 0.92 µM | O=C(NCc1ccc(Cl)cc1)c1cn2c3c(cc(CN4CCOCC4)cc3c1=O)OC(c1ccccc1)C2 (centres unmarked) [Example 27, N-(4-Chlorobenzyl)-9-(4-morpholinylmethyl)-7-oxo-2-phenyl-2,3-dihydro-7H-[1,4]oxazino[2,3,4-ij]quinoline-6-carboxamide]
19 | 1 µM | O=C(NCc1ccc(Cl)cc1)c1cn2c3c(cc(CN4CCOCC4)cc3c1=O)OCC2c1ccccc1 (centres unmarked) [Example 29, N-(4-Chlorobenzyl)-9-(4-morpholinylmethyl)-7-oxo-3-phenyl-2,3-dihydro-7H-[1,4]oxazino[2,3,4-ij]quinoline-6-carboxamide]
20 | 0.97 µM | O=C(NCc1ccc(Cl)cc1)c1cn2c3c(cc(CN4CCOCC4)cc3c1=O)OCC2CN1CCOCC1 (centres unmarked) [Example 30, N-(4-Chlorobenzyl)-3,9-bis(4-morpholinylmethyl)-7-oxo-2,3-dihydro-7H-[1,4]oxazino[2,3,4-ij]quinoline-6-carboxamide]
21 | 5 µM | O=C(NCc1ccc(Cl)cc1)c1cn2c3c(cc(C#CCO)cc3c1=O)OCC2(CO)CO [Example 31, N-(4-Chlorobenzyl)-3,3-bis(hydroxymethyl)-9-(3-hydroxy-1-propynyl)-7-oxo-2,3-dihydro-7H-[1,4]oxazino[2,3,4-ij]quinoline-6-carboxamide]
22 | 3 µM | O=C(NCc1ccc(Cl)cc1)c1cn2c3c(cc(CCCO)cc3c1=O)OCC2(CO)CO [Example 32, N-(4-Chlorobenzyl)-3,3-bis(hydroxymethyl)-9-(3-hydroxypropyl)-7-oxo-2,3-dihydro-7H-[1,4]oxazino[2,3,4-ij]quinoline-6-carboxamide]
23 | 0.52 µM | O=C(NCc1ccc(Cl)cc1)c1cn2c3c(cc(CN4CCOCC4)cc3c1=O)OC(c1ccccn1)C2 (centres unmarked) [Example 33, N-(4-Chlorobenzyl)-9-(4-morpholinylmethyl)-7-oxo-2-(2-pyridinyl)-2,3-dihydro-7H1-[1,4]oxazino[2,3,4-ij]quinoline-6-carboxamide]
